Results: ChEMBL document CHEMBL4507318, “Data for DCP probe BAY-985” (2021)
pKi: −log10 of the molar value. Calls of active or inactive are those of the source. The calls are words filed in the database; no cut-off is given here.

How the values were obtained:
[1] = target: Serine/threonine-protein kinase 32B (Homo sapiens) (UniProt Q9NY57)
[2] = target: Serine/threonine-protein kinase pim-3 (Homo sapiens) (UniProt Q86V86)
[3] = target: AP2-associated protein kinase 1 (Homo sapiens) (UniProt Q2M2I8)
[4] = target: Death-associated protein kinase 2 (Homo sapiens) (UniProt Q9UIK4)
[5] = target: Death-associated protein kinase 3 (Homo sapiens) (UniProt O43293)
[6] = target: Serine/threonine-protein kinase RIO2 (Homo sapiens) (UniProt Q9BVS4)
[7] = target: 5'-AMP-activated protein kinase catalytic subunit alpha-1 (Homo sapiens) (UniProt Q13131)
[8] = target: Beta-2 adrenergic receptor (Homo sapiens) (UniProt P07550); details: Compound concentration 10.0 uM
[9] = target: Calcium/calmodulin-dependent protein kinase type II subunit gamma (Homo sapiens) (UniProt Q13555)
[10] = target: Serine/threonine-protein kinase Nek11 (Homo sapiens) (UniProt Q8NG66)
Rattus norvegicus = species: Rattus norvegicus; details: Compound concentration 10.0 uM
[11] = target: Proto-oncogene tyrosine-protein kinase ROS (Homo sapiens) (UniProt P08922)
Sequence of Proto-oncogene tyrosine-protein kinase ROS (Homo sapiens) (P08922 whole entry): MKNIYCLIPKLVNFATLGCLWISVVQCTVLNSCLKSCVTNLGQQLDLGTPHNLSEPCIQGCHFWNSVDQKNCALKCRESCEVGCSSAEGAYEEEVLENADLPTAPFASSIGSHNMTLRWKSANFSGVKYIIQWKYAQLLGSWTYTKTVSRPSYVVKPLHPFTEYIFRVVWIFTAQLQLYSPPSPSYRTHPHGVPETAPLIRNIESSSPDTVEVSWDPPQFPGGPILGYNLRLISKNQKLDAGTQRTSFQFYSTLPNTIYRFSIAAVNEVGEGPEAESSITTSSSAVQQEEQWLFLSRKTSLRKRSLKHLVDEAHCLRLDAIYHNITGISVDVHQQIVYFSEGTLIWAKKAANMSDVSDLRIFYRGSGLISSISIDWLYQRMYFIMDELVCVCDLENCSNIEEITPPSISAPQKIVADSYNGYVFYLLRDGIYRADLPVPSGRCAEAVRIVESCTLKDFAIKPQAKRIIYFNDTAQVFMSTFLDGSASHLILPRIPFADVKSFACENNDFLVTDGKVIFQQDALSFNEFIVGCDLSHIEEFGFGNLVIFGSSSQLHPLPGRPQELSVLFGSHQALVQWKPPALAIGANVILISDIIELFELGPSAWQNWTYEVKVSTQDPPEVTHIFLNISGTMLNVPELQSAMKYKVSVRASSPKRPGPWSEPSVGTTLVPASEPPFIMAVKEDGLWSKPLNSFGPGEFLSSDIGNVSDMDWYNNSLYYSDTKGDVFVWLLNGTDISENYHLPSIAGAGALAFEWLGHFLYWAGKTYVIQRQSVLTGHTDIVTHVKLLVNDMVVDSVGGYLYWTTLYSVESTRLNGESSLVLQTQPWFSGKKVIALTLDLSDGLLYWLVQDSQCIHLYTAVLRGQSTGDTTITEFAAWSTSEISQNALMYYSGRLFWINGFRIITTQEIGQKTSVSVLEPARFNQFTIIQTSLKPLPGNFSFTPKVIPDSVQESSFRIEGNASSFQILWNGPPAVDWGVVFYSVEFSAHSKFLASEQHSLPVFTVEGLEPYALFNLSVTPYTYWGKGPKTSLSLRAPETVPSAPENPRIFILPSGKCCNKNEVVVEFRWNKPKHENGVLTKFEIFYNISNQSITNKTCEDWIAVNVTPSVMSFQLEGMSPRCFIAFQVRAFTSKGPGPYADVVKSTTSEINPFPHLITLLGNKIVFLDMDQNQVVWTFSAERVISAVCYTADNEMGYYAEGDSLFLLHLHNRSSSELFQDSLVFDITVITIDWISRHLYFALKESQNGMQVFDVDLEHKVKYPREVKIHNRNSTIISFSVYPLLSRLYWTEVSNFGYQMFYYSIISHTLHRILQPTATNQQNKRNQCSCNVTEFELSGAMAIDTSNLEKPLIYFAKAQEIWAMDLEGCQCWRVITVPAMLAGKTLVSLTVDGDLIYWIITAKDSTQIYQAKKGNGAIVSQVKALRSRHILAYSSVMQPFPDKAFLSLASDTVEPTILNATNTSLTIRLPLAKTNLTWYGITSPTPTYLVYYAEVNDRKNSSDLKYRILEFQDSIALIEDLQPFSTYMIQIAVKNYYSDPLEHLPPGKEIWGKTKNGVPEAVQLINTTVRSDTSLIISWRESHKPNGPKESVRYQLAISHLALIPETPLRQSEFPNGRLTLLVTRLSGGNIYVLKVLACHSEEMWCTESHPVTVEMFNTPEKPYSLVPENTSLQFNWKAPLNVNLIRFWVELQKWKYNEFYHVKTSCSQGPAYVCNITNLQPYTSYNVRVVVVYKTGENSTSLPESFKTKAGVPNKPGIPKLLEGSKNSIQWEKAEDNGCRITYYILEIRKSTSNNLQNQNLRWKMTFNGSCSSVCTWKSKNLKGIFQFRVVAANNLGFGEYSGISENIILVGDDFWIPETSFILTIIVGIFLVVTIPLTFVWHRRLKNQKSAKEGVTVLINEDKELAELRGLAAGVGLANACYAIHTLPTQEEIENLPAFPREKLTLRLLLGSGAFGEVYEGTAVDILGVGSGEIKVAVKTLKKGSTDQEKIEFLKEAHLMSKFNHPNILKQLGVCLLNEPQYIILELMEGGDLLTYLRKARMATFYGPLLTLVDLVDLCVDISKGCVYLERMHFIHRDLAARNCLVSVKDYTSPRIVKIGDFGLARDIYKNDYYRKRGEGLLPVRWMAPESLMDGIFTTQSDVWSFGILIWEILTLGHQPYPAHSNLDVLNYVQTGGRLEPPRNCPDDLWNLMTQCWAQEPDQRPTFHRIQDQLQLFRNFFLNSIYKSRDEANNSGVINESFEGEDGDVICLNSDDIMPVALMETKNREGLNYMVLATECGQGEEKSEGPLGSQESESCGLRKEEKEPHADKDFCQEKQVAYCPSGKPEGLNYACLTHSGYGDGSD

[12] = target: Tyrosine-protein kinase JAK1 (Homo sapiens) (UniProt P23458)
Sequence of Tyrosine-protein kinase JAK1 (Homo sapiens) (P23458 whole entry): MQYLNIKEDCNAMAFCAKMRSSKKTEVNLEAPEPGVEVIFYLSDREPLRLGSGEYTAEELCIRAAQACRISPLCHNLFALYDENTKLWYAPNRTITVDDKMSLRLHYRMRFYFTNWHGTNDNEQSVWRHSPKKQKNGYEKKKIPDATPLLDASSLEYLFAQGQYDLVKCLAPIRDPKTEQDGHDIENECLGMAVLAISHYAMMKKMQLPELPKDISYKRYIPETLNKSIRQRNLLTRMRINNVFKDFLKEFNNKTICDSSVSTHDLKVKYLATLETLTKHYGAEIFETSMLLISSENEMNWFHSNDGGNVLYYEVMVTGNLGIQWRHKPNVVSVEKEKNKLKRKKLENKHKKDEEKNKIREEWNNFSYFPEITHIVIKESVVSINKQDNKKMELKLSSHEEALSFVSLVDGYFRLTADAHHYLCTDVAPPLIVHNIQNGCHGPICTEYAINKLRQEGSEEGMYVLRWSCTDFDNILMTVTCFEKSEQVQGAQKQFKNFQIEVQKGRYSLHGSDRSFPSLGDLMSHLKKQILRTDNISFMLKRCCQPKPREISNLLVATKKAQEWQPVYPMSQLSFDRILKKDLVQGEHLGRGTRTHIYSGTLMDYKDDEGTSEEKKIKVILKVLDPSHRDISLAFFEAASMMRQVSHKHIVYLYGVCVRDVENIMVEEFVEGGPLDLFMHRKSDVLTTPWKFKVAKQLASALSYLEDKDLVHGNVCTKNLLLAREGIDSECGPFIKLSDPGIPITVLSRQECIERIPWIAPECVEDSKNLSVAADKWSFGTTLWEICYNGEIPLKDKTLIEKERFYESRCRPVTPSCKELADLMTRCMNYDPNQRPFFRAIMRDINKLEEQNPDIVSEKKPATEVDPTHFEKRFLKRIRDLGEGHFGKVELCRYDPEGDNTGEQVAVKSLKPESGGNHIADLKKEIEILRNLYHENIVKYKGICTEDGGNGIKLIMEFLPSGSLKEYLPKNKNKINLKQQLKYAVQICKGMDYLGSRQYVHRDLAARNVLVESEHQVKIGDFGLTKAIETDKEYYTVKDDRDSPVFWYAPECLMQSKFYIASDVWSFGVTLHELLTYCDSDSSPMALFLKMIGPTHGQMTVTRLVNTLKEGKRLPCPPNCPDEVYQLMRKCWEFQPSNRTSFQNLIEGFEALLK

[13] = test system: eIF-2-alpha kinase GCN2 (Homo sapiens), Q9P2K8 [S808G]
Sequence of eIF-2-alpha kinase GCN2 (Homo sapiens), Q9P2K8 [S808G] (Q9P2K8 whole entry S808G): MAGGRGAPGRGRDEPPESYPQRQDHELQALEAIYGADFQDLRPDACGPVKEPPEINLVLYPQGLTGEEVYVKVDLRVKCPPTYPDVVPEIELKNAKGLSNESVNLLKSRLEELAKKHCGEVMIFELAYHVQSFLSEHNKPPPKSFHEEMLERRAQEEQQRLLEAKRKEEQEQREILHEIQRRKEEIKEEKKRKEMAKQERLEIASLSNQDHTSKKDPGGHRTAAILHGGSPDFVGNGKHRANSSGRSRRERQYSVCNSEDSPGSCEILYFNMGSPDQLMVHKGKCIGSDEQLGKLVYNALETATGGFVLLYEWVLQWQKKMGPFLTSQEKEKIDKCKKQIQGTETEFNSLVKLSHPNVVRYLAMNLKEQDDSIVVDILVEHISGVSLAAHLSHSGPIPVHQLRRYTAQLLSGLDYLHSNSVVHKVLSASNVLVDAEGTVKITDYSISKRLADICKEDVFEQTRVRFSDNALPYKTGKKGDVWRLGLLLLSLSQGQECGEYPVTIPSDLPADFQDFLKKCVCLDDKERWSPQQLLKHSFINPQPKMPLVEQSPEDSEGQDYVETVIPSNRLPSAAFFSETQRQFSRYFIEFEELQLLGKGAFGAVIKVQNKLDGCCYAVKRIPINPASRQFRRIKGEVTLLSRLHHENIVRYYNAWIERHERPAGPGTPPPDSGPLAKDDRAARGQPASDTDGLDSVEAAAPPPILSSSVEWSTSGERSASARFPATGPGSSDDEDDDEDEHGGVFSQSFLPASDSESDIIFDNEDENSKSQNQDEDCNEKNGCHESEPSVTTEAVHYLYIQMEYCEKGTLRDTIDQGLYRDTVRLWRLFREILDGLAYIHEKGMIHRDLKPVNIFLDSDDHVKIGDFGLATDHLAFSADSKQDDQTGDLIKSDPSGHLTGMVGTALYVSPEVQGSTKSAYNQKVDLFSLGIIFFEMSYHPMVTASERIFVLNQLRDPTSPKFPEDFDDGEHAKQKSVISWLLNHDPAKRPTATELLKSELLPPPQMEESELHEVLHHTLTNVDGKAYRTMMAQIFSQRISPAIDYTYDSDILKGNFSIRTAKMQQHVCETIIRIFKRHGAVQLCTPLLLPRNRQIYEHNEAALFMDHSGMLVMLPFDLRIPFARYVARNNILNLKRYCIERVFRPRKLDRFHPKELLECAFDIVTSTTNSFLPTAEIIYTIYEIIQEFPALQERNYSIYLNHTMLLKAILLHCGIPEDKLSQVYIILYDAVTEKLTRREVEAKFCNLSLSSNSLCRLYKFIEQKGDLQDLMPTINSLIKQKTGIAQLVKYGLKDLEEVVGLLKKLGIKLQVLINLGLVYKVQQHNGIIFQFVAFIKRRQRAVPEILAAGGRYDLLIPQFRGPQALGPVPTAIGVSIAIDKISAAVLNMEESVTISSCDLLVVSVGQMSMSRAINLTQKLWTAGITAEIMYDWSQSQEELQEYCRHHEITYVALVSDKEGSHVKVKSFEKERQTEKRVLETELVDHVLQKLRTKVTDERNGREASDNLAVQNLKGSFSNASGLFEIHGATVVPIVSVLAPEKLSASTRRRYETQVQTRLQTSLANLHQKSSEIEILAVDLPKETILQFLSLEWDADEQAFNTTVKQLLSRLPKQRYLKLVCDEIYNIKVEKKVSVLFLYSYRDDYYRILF

[14] = target: 5-hydroxytryptamine receptor 2A (Homo sapiens) (UniProt P28223); details: Compound concentration 10.0 uM
[15] = target: Cyclin-G-associated kinase (Homo sapiens) (UniProt O14976)
[16] = target: Serine/threonine-protein kinase/endoribonuclease IRE1 (Homo sapiens) (UniProt O75460)
[17] = target: Receptor-interacting serine/threonine-protein kinase 4 (Homo sapiens) (UniProt P57078)
[18] = target: Serine/threonine-protein kinase 17A (Homo sapiens, UniProt Q9UEE5); experiment: NanoBRET with STK17A
[19] = target: Mitogen-activated protein kinase kinase kinase 19 (Homo sapiens, UniProt Q56UN5); experiment: NanoBRET with MAP3K19
[20] = target: 5-hydroxytryptamine receptor 2B (Homo sapiens, UniProt P41595); experiment: GPCRScan assay: inhibition of 5-HT2B; parameters: radioligand conc. used [nm] 1.0 – 2.0, parental cells stable HEK
[21] = target: T1, Serine/threonine-protein kinase TBK1 (Homo sapiens, UniProt Q9UHD2); experiment: Biochemical assay (high ATP) with TBK1
[22] = target: Inhibitor of nuclear factor kappa-B kinase subunit epsilon (Homo sapiens, UniProt Q14164); experiment: cell-based
[23] = target: Receptor-type tyrosine-protein kinase FLT3 (Homo sapiens, UniProt P36888); experiment: NanoBRET with FTL3
[24] = target: GABA-A receptor; anion channel (Rattus norvegicus) (UniProt O09028+P15431+P18506+P18508+P19969+P20236+P23574+P23576+P28471+P28473+P30191+P62813+P63079+P63138+Q91ZM7+Q9ES14); details: Compound concentration 10.0 uM
[25] = target: T1, Serine/threonine-protein kinase TBK1; experiment: cell-based
[26] = target: Dual specificity mitogen-activated protein kinase kinase 5 (Homo sapiens, UniProt Q13163); experiment: NanoBRET with MAP2K5
[27] = target: Sodium-dependent dopamine transporter (Homo sapiens) (UniProt Q01959); details: Compound concentration 10.0 uM
[28] = Compound concentration 1000.0 nM
[29] = Compound concentration 100.0 nM

Structure (SMILES): CN(C)c1ncnc(-c2ccc3nc(Nc4cc(CN5CCN(C(=O)CC(F)(F)F)CC5)ccn4)[nH]c3c2)c1Cl [BAY-440]
- residual activity [1, 28]: 100%
- residual activity [2, 28]: 100%
- residual activity [3, 28]: 85%
- residual activity [4, 28]: 100%
- residual activity [5, 28]: 99%
- residual activity [6, 28]: 81%
- residual activity [7, 28]: 100%
- inhibition [8]: 12.6%
- residual activity [9, 28]: 100%
- residual activity [10, 28]: 55%
- inhibition (Rattus norvegicus): 13.9%
- residual activity [11, 28]: 100%
- residual activity [12, 28]: 93%
- residual activity [13, 28]: 100%
- inhibition [14]: -4.19%
- residual activity [15, 28]: 82%
- residual activity [16, 28]: 62%
- residual activity [17, 28]: 100%

Structure (SMILES): C[C@H](c1ccnc(Nc2nc3ccc(-c4cc(N(C)C)ncn4)cc3[nH]2)c1)N1CCN(C(=O)CC(F)(F)F)CC1 [BAY-985]
- residual activity [1, 29]: 100%
- residual activity [2, 29]: 87%
- residual activity [3, 29]: 60%
- residual activity [4, 29]: 74%
- IC50 [18]: > 20000 nM (not active)
- residual activity [5, 29]: 90%
- residual activity [6, 29]: 100%
- IC50 [19]: > 20000 nM (not active)
- pKi ([20]; read-out: Ki): 5.88
- Ki ([20]; read-out: pKi (converted)): 1290 nM
- IC50 [21]: 18 nM (active)
- IC50 [22]: 1730 nM (active)
- residual activity [7, 29]: 100%
- inhibition [8]: 33.3%
- residual activity [9, 29]: 77%
- residual activity [10, 29]: 96%
- inhibition (Rattus norvegicus): -2.73%
- residual activity [11, 29]: 100%
- residual activity [12, 29]: 92%
- residual activity [13, 29]: 58%
- IC50 [23]: > 20000 nM (not active)
- inhibition [24]: 23%
- IC50 [25]: 312 nM (active)
- residual activity [15, 29]: 95%
- IC50 [26]: > 20000 nM (not active)
- inhibition [27]: 30.5%
- residual activity [16, 29]: 86%
- residual activity [17, 29]: 100%
